Measured values as given in patent US11331299B2, “Medicinal use of serrulatane diterpenes” (The University of Sydney, priority 2016, dated 2022).
Like-named read-outs stand apart in the source and are kept apart here.

System: 280 human cancer cell lines
Test: OncoPanel cell proliferation assay (10-day)
Type: cell-based
Conditions: Homo sapiens; for GI50: read-out: Cell Count GI50; for IC50: read-out: Cell Count IC50; for EC50: read-out: Cell Count EC50
[1] = C-4-II, C-4 II, Female GU - Cervix
[2] = C-33-A, C-33A, Female GU - Cervix
[3] = CAL-62, CAL-62, Endocrine - Thyroid
[4] = CCF-STTG1, CCF-STTG1, CNS - Glioma
[5] = CGTH-W-1, CGTH-W-1, Endocrine - Thyroid
[6] = CHP-212, CHP-212, CNS - Neuroblastoma
[7] = COLO-320-HSR, Colo 320 HSR, Colon
[8] = COLO-829, COLO 829, Skin (Melanoma)
[9] = COR-L105, COR-L105, Lung - NSCLC
[10] = Ca-Ski, Ca Ski, Female GU - Ovary

CC(C)=CCC[C@H](C)[C@@H]1CC[C@@H](C)c2c1cc(C)c(O)c2O [Compound 4, 7,8-dihydroxyserrulat-14-ene]
GI50 (BT-474, BT474, Breast): 25 µM
IC50 (BT-474, BT474, Breast): 25.7 µM
EC50 (BT-549, BT-549, Breast): 15.3 µM
GI50 (BT-549, BT-549, Breast): 15.1 µM
IC50 (BT-549, BT-549, Breast): 15.3 µM
EC50 (BV-173, BV-173, Leukemia): 3.56 µM
GI50 (BV-173, BV-173, Leukemia): 3.55 µM
IC50 (BV-173, BV-173, Leukemia): 3.56 µM
EC50 (BXPC-3, BxPC-3, Pancreas): 13.4 µM
GI50 (BXPC-3, BxPC-3, Pancreas): 13.4 µM
IC50 (BXPC-3, BxPC-3, Pancreas): 13.4 µM
EC50 (BeWo, Placenta): 15.6 µM
GI50 (BeWo, Placenta): 15.5 µM
IC50 (BeWo, Placenta): 15.6 µM
EC50 (C32, Skin (Melanoma)): 7.84 µM
GI50 (C32, Skin (Melanoma)): 6.37 µM
IC50 (C32, Skin (Melanoma)): 7.84 µM
EC50 [1]: 12.6 µM
GI50 [1]: 12.5 µM
IC50 [1]: 12.6 µM
EC50 [2]: 9.57 µM
GI50 [2]: 9.42 µM
IC50 [2]: 9.57 µM
EC50 (CA46, CA46, Lymphoma): 4.06 µM
GI50 (CA46, CA46, Lymphoma): 4.06 µM
IC50 (CA46, CA46, Lymphoma): 4.06 µM
EC50 (CAKI-1, Caki-1, Kidney): 14.4 µM
GI50 (CAKI-1, Caki-1, Kidney): 14.1 µM
IC50 (CAKI-1, Caki-1, Kidney): 14.4 µM
EC50 (CAKI-2, Caki-2, Kidney): 13.1 µM
GI50 (CAKI-2, Caki-2, Kidney): 13.5 µM
IC50 (CAKI-2, Caki-2, Kidney): 13.6 µM
EC50 (CAL-27, Cal 27, Head and Neck): 12.3 µM
GI50 (CAL-27, Cal 27, Head and Neck): 12.2 µM
IC50 (CAL-27, Cal 27, Head and Neck): 12.3 µM
EC50 [3]: 5.36 µM
GI50 [3]: 5.36 µM
IC50 [3]: 5.36 µM
EC50 (CAMA-1, CAMA-1, Breast): > 30 µM
GI50 (CAMA-1, CAMA-1, Breast): > 30 µM
IC50 (CAMA-1, CAMA-1, Breast): > 30 µM
EC50 (CAPAN-1, Capan-1, Pancreas): > 30 µM
GI50 (CAPAN-1, Capan-1, Pancreas): > 30 µM
IC50 (CAPAN-1, Capan-1, Pancreas): > 30 µM
EC50 [4]: 19.7 µM
GI50 [4]: 16 µM
IC50 [4]: 19.7 µM
EC50 (CCRF-CEM, CCRFCEM, Leukemia): 4.92 µM
GI50 (CCRF-CEM, CCRFCEM, Leukemia): 4.91 µM
IC50 (CCRF-CEM, CCRFCEM, Leukemia): 4.93 µM
EC50 (CEM/C1, CEM-C1, Leukemia): 1.47 µM
GI50 (CEM/C1, CEM-C1, Leukemia): 1.47 µM
IC50 (CEM/C1, CEM-C1, Leukemia): 1.47 µM
EC50 (CFPAC-1, CFPAC-1, Pancreas): 25.2 µM
GI50 (CFPAC-1, CFPAC-1, Pancreas): 25.1 µM
IC50 (CFPAC-1, CFPAC-1, Pancreas): 25.2 µM
EC50 [5]: 3.45 µM
GI50 [5]: 3.47 µM
IC50 [5]: 3.48 µM
EC50 (CHL-1, CHL-1, Skin (Melanoma)): 11.9 µM
GI50 (CHL-1, CHL-1, Skin (Melanoma)): 11.8 µM
IC50 (CHL-1, CHL-1, Skin (Melanoma)): 11.9 µM
EC50 [6]: 9.77 µM
GI50 [6]: 9.74 µM
IC50 [6]: 9.78 µM
EC50 (CML-T1, CML-T1, Leukemia): 3.93 µM
GI50 (CML-T1, CML-T1, Leukemia): 3.93 µM
IC50 (CML-T1, CML-T1, Leukemia): 3.93 µM
EC50 (COLO 201, Colo 201, Colon): 4.07 µM
GI50 (COLO 201, Colo 201, Colon): 4.04 µM
IC50 (COLO 201, Colo 201, Colon): 4.07 µM
EC50 (COLO 205, Colo 205, Colon): 11.9 µM
GI50 (COLO 205, Colo 205, Colon): 11.9 µM
IC50 (COLO 205, Colo 205, Colon): 11.9 µM
EC50 (COLO 320DM, Colon): 7.91 µM
GI50 (COLO 320DM, Colon): 7.87 µM
IC50 (COLO 320DM, Colon): 7.91 µM
EC50 [7]: 5.15 µM
GI50 [7]: 5.15 µM
IC50 [7]: 5.16 µM
EC50 [8]: 3.71 µM
GI50 [8]: 3.29 µM
IC50 [8]: 3.71 µM
EC50 (COR-L23, COR-L23, Lung - NSCLC): 13.3 µM
GI50 (COR-L23, COR-L23, Lung - NSCLC): 13.2 µM
IC50 (COR-L23, COR-L23, Lung - NSCLC): 13.3 µM
EC50 [9]: 8.66 µM
GI50 [9]: 8.47 µM
IC50 [9]: 8.66 µM
EC50 (CRO-AP2, CRO-AP2, Lymphoma): 9.94 µM
GI50 (CRO-AP2, CRO-AP2, Lymphoma): 9.88 µM
IC50 (CRO-AP2, CRO-AP2, Lymphoma): 9.94 µM
EC50 [10]: 17.6 µM
GI50 [10]: 17.6 µM
IC50 [10]: 17.6 µM
EC50 (Calu-1, Calu1, Lung - NSCLC): 8.88 µM
GI50 (Calu-1, Calu1, Lung - NSCLC): 8.77 µM
IC50 (Calu-1, Calu1, Lung - NSCLC): 8.88 µM
EC50 (Calu-6, Calu6, Lung - NSCLC): 25 µM
GI50 (Calu-6, Calu6, Lung - NSCLC): 24.5 µM
IC50 (Calu-6, Calu6, Lung - NSCLC): 25 µM
